Columns and labels:
[1] = biological target: Serine palmitoyltransferase 1 (Homo sapiens) (UniProt O15269)
[2] = biological target: Lupus La protein (Homo sapiens) (UniProt P05455)
[3] = biological target: Prothymosin alpha (Homo sapiens) (UniProt P06454)
[4] = biological target: UDP-glucose:glycoprotein glucosyltransferase 1 (Homo sapiens) (UniProt Q9NYU2)
Cyclin-A2 (Homo sapiens) = Cyclin-A2 (Homo sapiens) (UniProt P20248)
[5] = biological target: Tyrosine-protein kinase FRK (Homo sapiens) (UniProt P42685)
[6] = biological target: Leucine-rich repeat-containing protein 59 (Homo sapiens) (UniProt Q96AG4)
[7] = biological target: Aminopeptidase B (Homo sapiens) (UniProt Q9H4A4)
[8] = biological target: D-3-phosphoglycerate dehydrogenase (Homo sapiens) (UniProt O43175)
[9] = biological target: Succinate--CoA ligase [ADP/GDP-forming] subunit alpha, mitochondrial (Homo sapiens) (UniProt P53597)
[10] = biological target: Peripherin (Homo sapiens) (UniProt P41219)
[11] = biological target: Citron Rho-interacting kinase (Homo sapiens) (UniProt O14578)
[12] = biological target: Alpha-enolase (Homo sapiens) (UniProt P06733)
[13] = biological target: Tyrosine-protein kinase BTK (Homo sapiens) (UniProt Q06187)
[14] = biological target: 26S proteasome non-ATPase regulatory subunit 2 (Homo sapiens) (UniProt Q13200)
[15] = biological target: Large ribosomal subunit protein uL4 (Homo sapiens) (UniProt P36578)
[16] = biological target: DNA topoisomerase 2-beta (Homo sapiens) (UniProt Q02880)
[17] = biological target: Ribosomal protein eS27-like (Homo sapiens) (UniProt Q71UM5)
[18] = biological target: ELAV-like protein 1 (Homo sapiens) (UniProt Q15717)
[19] = biological target: Tyrosine-protein kinase Yes (Homo sapiens) (UniProt P07947)
[20] = biological target: Large ribosomal subunit protein uL23 (Homo sapiens) (UniProt P62750)
[21] = biological target: Large ribosomal subunit protein eL33 (Homo sapiens) (UniProt P18077)
Ephrin type-A receptor 5 = Ephrin type-A receptor 5 (Homo sapiens, UniProt P54756)
[22] = biological target: ATP synthase F(1) complex subunit gamma, mitochondrial (Homo sapiens) (UniProt P36542)
[23] = biological target: Hepatocyte growth factor receptor (Homo sapiens) (UniProt P08581)
[24] = biological target: Metal cation symporter ZIP14 (Homo sapiens) (UniProt Q15043)
[25] = biological target: Signal peptidase complex subunit 2 (Homo sapiens) (UniProt Q15005)
[26] = biological target: Tripeptidyl-peptidase 2 (Homo sapiens) (UniProt P29144)
[27] = biological target: Protein SGT1 homolog (Homo sapiens) (UniProt Q9Y2Z0)
[28] = biological target: Spliceosome RNA helicase DDX39B (Homo sapiens) (UniProt Q13838)
[29] = biological target: Calponin-2 (Homo sapiens) (UniProt Q99439)
[30] = biological target: Proteasome subunit alpha type-6 (Homo sapiens) (UniProt P60900)
[31] = biological target: RNA-binding protein 28 (Homo sapiens) (UniProt Q9NW13)
[32] = biological target: Serine/threonine-protein kinase D2 (Homo sapiens) (UniProt Q9BZL6)
[33] = biological target: E3 ubiquitin-protein ligase RNF213 (Homo sapiens) (UniProt Q63HN8)
[34] = biological target: Ras-related protein Rab-10 (Homo sapiens) (UniProt P61026)
[35] = biological target: Transmembrane protein 161A (Homo sapiens) (UniProt Q9NX61)
[36] = biological target: Aldehyde dehydrogenase X, mitochondrial (Homo sapiens) (UniProt P30837)
[37] = biological target: Aminoacyl tRNA synthase complex-interacting multifunctional protein 1 (Homo sapiens) (UniProt Q12904)
[38] = biological target: Mitochondrial-processing peptidase subunit beta (Homo sapiens) (UniProt O75439)
[39] = biological target: Serine/threonine-protein kinase SIK3 (Homo sapiens) (UniProt Q9Y2K2)
[40] = biological target: Large ribosomal subunit protein eL22 (Homo sapiens) (UniProt P35268)
[41] = biological target: Cathepsin B (Homo sapiens) (UniProt P07858)
[42] = biological target: TRAF2 and NCK-interacting protein kinase (Homo sapiens) (UniProt Q9UKE5)
[43] = biological target: DNA replication licensing factor MCM6 (Homo sapiens) (UniProt Q14566)
[44] = biological target: Dual specificity mitogen-activated protein kinase kinase 2 (Homo sapiens) (UniProt P36507)
[45] = biological target: Tubulin alpha-1B chain (Homo sapiens) (UniProt P68363)
Also: assay method not described here.

Cc1ccc(C(=O)Nc2cccc(C(F)(F)F)c2)cc1Nc1nc(-c2cccnc2)nc2c1cnn2C
ED50 [1]: 613 nM | ED50 [2]: 1940 nM | ED50 [3]: 11100 nM | ED50 [4]: 54500 nM | ED50 (Cyclin-A2 (Homo sapiens)): 4890 nM | ED50 [5]: 2160 nM | ED50 [6]: 163 nM | ED50 [7]: 664 nM | ED50 [8]: 9.45 nM | ED50 [9]: 56.3 nM | ED50 [10]: 178 nM | ED50 [11]: 771 nM | ED50 [12]: 4370 nM | ED50 [13]: 5020 nM | ED50 [14]: 3140 nM | ED50 [15]: 4730 nM | ED50 [16]: 3180 nM | ED50 [17]: 6460 nM | ED50 [18]: 10.7 nM | ED50 [19]: 2580 nM | ED50 [20]: 105 nM | ED50 [21]: 38.8 nM | ED50 (Ephrin type-A receptor 5): 63.3 nM | ED50 [22]: 3130 nM | ED50 [23]: 1750 nM | ED50 [24]: 3.37 nM | ED50 [25]: 916 nM | ED50 [26]: 53800 nM | ED50 [27]: 17200 nM | ED50 [28]: 18400 nM | ED50 [29]: 85500 nM | ED50 [30]: 3600 nM | ED50 [31]: 21 nM | ED50 [32]: 490 nM | ED50 [33]: 53800 nM | ED50 [34]: 846 nM | ED50 [35]: 44 nM | ED50 [36]: 9.43 nM | ED50 [37]: 16500 nM | ED50 [38]: 10500 nM | ED50 [39]: 112000 nM | ED50 [40]: 784000 nM | ED50 [41]: 60400 nM | ED50 [42]: 23200 nM | ED50 [43]: 11100 nM | ED50 [44]: 12.7 nM | ED50 [45]: 1730 nM

Cc1ccc(C(=O)Nc2cccc(C(F)(F)F)c2)cc1Nc1nc(-c2cccnc2)nc2nn(C)cc12
ED50 [1]: 107 nM | ED50 [2]: 27.9 nM | ED50 [3]: 19900 nM | ED50 [4]: 43.5 nM | ED50 (Cyclin-A2 (Homo sapiens)): 586 nM | ED50 [5]: 8670 nM | ED50 [6]: 8.2 nM | ED50 [7]: 41.8 nM | ED50 [8]: 15000 nM | ED50 [9]: 877 nM | ED50 [10]: 1740 nM | ED50 [11]: 15600 nM | ED50 [12]: 53 nM | ED50 [13]: 5750 nM | ED50 [14]: 14900 nM | ED50 [15]: 24900 nM | ED50 [16]: 732000 nM | ED50 [17]: 4.32 nM | ED50 [18]: 16500 nM | ED50 [19]: 3560 nM | ED50 [20]: 13.7 nM | ED50 [21]: 16.7 nM | ED50 (Ephrin type-A receptor 5): 982 nM | ED50 [22]: 2430 nM | ED50 [23]: 523000 nM | ED50 [24]: 3030 nM | ED50 [25]: 2990 nM | ED50 [26]: 487 nM | ED50 [27]: 4080 nM | ED50 [28]: 957 nM | ED50 [29]: 79200 nM | ED50 [30]: 40.9 nM | ED50 [31]: 1750 nM | ED50 [32]: 46.8 nM | ED50 [33]: 595 nM | ED50 [34]: 7340 nM | ED50 [35]: 434 nM | ED50 [36]: 7.2 nM | ED50 [37]: 57.4 nM | ED50 [38]: 47.6 nM | ED50 [39]: 10400 nM | ED50 [40]: 7.58 nM | ED50 [41]: 18100 nM | ED50 [42]: 75.1 nM | ED50 [43]: 343 nM | ED50 [44]: 2140 nM | ED50 [45]: 3870 nM

From ChEMBL document CHEMBL5649169 (ChemMedChem, 2018)
